The assay deals with PDE10A (Homo sapiens (Human), UniProt Q9Y233). The assay can be described thus: Measurement of PDE10A inhibitory activity-2 (PDE10A fraction prepared from MOLT-4 cells). The note with it: PDE10A fraction from MOLT-4 cells (peak around 250 mM NaCl). It counts as biochemical. How it is done: A human acute lymphoblastic lymphoma T cell line MOLT-4 (which can be purchased under ATCC No. CRL-1582 from ATCC) was cultured in an RPMI1640 medium containing 10% fetal bovine serum to obtain 5×10^8 MOLT-4 cells. The cells were recovered by centrifugation and suspended in 10 ml of buffer solution A (25 mM Tris-HCl, 5 mM 2-mercaptoethanol, 2 mM benzamidine, 2 mM EDTA, and 0.1 mM 4-(2-aminoethyl)benzenesulfonyl hydrochloride, pH 7.5). The cells were homogenized using a Polytron homogenizer and centrifuged (4° C., 25,000 g, 10 minutes). Then, the supernatant was further ultracentrifuged (4° C., 100,000 g, 60 minutes). The obtained supernatant was filtered through a 0.2 μm filter to obtain a soluble fraction.
Sequence of PDE10A (Q9Y233 whole entry): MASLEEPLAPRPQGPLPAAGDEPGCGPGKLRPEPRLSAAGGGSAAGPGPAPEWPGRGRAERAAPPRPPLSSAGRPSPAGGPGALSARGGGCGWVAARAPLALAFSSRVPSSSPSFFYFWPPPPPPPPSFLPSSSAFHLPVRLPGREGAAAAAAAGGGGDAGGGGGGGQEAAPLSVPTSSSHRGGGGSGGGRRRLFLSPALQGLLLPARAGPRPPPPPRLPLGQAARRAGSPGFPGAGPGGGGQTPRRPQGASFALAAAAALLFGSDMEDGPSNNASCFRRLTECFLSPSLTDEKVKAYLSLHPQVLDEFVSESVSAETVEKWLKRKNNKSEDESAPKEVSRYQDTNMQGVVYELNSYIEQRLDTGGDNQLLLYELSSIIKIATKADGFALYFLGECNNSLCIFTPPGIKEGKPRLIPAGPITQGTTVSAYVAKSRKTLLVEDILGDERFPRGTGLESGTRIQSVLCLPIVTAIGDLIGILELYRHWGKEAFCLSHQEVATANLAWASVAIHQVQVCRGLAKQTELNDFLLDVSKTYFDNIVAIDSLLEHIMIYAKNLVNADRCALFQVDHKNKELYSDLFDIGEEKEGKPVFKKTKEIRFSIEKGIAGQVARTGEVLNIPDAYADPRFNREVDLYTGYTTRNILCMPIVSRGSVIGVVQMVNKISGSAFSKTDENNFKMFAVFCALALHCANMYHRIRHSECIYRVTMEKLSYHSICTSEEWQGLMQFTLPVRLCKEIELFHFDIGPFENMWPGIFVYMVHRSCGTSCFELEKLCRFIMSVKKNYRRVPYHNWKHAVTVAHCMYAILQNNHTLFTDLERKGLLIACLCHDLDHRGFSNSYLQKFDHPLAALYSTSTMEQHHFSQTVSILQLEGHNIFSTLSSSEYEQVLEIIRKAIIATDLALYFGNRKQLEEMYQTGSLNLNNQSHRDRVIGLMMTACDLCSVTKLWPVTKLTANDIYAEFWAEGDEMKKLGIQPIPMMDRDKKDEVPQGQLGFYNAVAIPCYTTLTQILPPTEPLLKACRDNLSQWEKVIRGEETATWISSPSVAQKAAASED
HiTrap Q HP column (5 ml×2, GE Healthcare Japan Corp.) equilibrated with buffer solution A was charged with the obtained soluble fraction. Phosphodiesterase was eluted with 300 ml of buffer solution A containing a linear gradient solution of 0 to 0.8 M NaCl to recover sixty 5-ml fractions. Each fraction was tested for cAMP-metabolizing phosphodiesterase activity.
On the other hand, total RNA was prepared from Jurkat cells, one type of human T cell, and similarly subjected to RT-PCR. […] Eur J Biochem. 1999, 266 (3), 1118-2 has reported that PDE10A from the rat striatum and testis is eluted as an active peak centered around 250 mM NaCl.
For these reasons, this fraction was used as a solution for the evaluation of PDE10A inhibitory activity. The obtained solution was used to calculate the inhibitory activity (IC50) of a test compound in the same way as in the aforementioned test.

Here are results for 29 compounds from US9464076B2, “Benzothiophene derivative” (Daiichi Sankyo Company, Limited, priority 2013, dated 2016).

pIC50: −log10 of the molar value. Counter-ions that a name gives are not always drawn.

One may read the pIC50 as the IC50 on a negative log10 scale, so that one unit is a factor of ten. Higher therefore signals a small IC50. `Cc1c(C(=O)Nc2cc(C(C)(C)O)c3ccccc3n2)sc2c(C(=O)C3CCCC3)cccc12` [Example 25, 7-(Cyclopentylcarbonyl)-N-(4-(2-hydroxypropan-2-yl)quinolin-2-yl)-3-methylbenzo[b]thiophene-2-carboxamide] gave a pIC50 of 8.40.
Compound `COCc1ccc(C(C)=O)c2sc(C(=O)Nc3ccc4c(COC(C)=O)cccc4n3)c(C)c12` [Example 83, (2-(7-Acetyl-4-(methoxymethyl)-3-methylbenzo[b]thiophene-2-carboxamido)quinolin-5-yl)methylacetate] gave a pIC50 of 9.07.
In turn, `CC(=O)c1ccc(CO)c2c(C)c(C(=O)Nc3ccc4c(CO)cccc4n3)sc12` [Example 114, 7-Acetyl-4-(hydroxymethyl)-N-(5-(hydroxymethyl)quinolin-2-yl)-3-methylbenzo[b]thiophene-2-carboxamide] had a pIC50 of 8.68.
The value for `[2H]C([2H])([2H])OC1CN(C(=O)c2cccc3nc(NC(=O)c4sc5c(C(C)=O)ccc(C([2H])([2H])OC)c5c4C)ccc23)C1` [Example 123, 7-Acetyl-N-(5-((3-(^2H3)methoxyazetidin-1-yl)carbonyl)quinolin-2-yl)-4-(methoxy(^2H2)methyl)-3-methylbenzo[b]thiophene-2-carboxamide] was 9.66; that for `CCCC(=O)c1cccc2c(C)c(C(=O)Nc3cc(C(C)(C)O)c4ccccc4n3)sc12` [Example 17, 7-Butyryl-N-(4-(2-hydroxypropan-2-yl)quinolin-2-yl)-3-methylbenzo[b]thiophene-2-carboxamide] was 8.59; that for `CC(=O)c1ccc(C(C)=O)c2sc(C(=O)Nc3cc(C(C)(C)O)c4ccccc4n3)cc12` [Example 8, 4,7-Diacetyl-N-(4-(2-hydroxypropan-2-yl)quinolin-2-yl)benzo[b]thiophene-2-carboxamide] was 7.92.
With `COCc1ccc(C(C)=O)c2sc(C(=O)Nc3cc(C(C)O)c4ccccc4n3)c(C)c12` (centres unmarked) [Example 33, 7-Acetyl-N-(4-(1-hydroxyethyl)quinolin-2-yl)-4-(methoxymethyl)-3-methylbenzo[b]thiophene-2-carboxamide hydrochloride] the figure was 9.05.
`COCc1ccc(C(C)=O)c2sc(C(=O)Nc3ccc4c(COC(=O)[C@@H](N)CO)cccc4n3)c(C)c12` [Example 91, (S)-(2-(7-Acetyl-4-(methoxymethyl)-3-methylbenzo[b]thiophene-2-carboxamido)quinolin-5-yl)methyl-2-amino-3-hydroxypropanoate]: the negative logarithm of the IC50 (pIC50) was 9.13.
With `CC(=O)c1ccc(C(C)=O)c2c(C)c(C(=O)Nc3cc(CO)c4ccccc4n3)sc12` [Example 14, 4,7-Diacetyl-N-(4-(hydroxymethyl)quinolin-2-yl)-3-methylbenzo[b]thiophene-2-carboxamide] the figure was 9.05; with `CCOCc1cccc2nc(NC(=O)c3sc4c(C(C)=O)ccc(COC)c4c3C)ccc12` [Example 70, 7-Acetyl-N-(5-(ethoxymethyl)quinolin-2-yl)-4-(methoxymethyl)-3-methylbenzo[b]thiophene-2-carboxamide], 8.80; with `CC(=O)c1ccc(C(C)=O)c2c(C)c(C(=O)Nc3cc(CN4CC(O)C4)c4ccccc4n3)sc12` [Example 52, 4,7-Diacetyl-N-(4-((3-hydroxyazetidin-1-yl)methyl)quinolin-2-yl)-3-methylbenzo[b]thiophene-2-carboxamide], 8.92.
The value for `CC(=O)c1ccc(C(C)=O)c2c(C)c(C(=O)Nc3cc(C(C)(C)O)c4ccccc4n3)sc12` [Example 2, 4,7-Diacetyl-N-(4-(2-hydroxypropan-2-yl)quinolin-2-yl)-3-methylbenzo[b]thiophene-2-carboxamide] was 8.59; that for `COCc1ccc(C(C)=O)c2sc(C(=O)Nc3cc(CN4CCCC4)c4ccccc4n3)c(C)c12` [Example 43, 7-Acetyl-4-(methoxymethyl)-3-methyl-N-(4-(pyrrolidin-1-ylmethyl)quinolin-2-yl)benzo[b]thiophene-2-carboxamide] was 8.21; that for `CC(=O)c1ccc(C(C)=O)c2c(C)c(C(=O)Nc3ccc4ccccc4n3)sc12` [Example 1, 4,7-Diacetyl-3-methyl-N-(quinolin-2-yl)benzo[b]thiophene-2-carboxamide] was 8.80.
The value for `Cc1c(C(=O)Nc2cc(C(C)(C)O)c3ccccc3n2)sc2c(C(=O)C(C)(C)C)cccc12` [Example 22, N-(4-(2-Hydroxypropan-2-yl)quinolin-2-yl)-3-methyl-7-pivaloylbenzo[b]thiophene-2-carboxamide] was 9.00; that for `COCc1ccc(C(C)=O)c2sc(C(=O)Nc3ccc4c(C(=O)O)cccc4n3)c(C)c12` [Example 93, 2-(7-Acetyl-4-(methoxymethyl)-3-methylbenzo[b]thiophene-2-carboxamido)quinoline-5-carboxylic acid] was 9.96; that for `CCC(=O)c1cccc2c(C)c(C(=O)Nc3cc(C(C)(C)O)c4ccccc4n3)sc12` [Example 16, N-(4-(2-Hydroxypropan-2-yl)quinolin-2-yl)-3-methyl-7-propionylbenzo[b]thiophene-2-carboxamide] was 8.32.
`CCC(=O)c1ccc(C(C)=O)c2sc(C(=O)Nc3cc(C(C)(C)O)c4ccccc4n3)c(C)c12` [Example 10, 7-Acetyl-N-(4-(2-hydroxypropan-2-yl)quinolin-2-yl)-3-methyl-4-propionylbenzo[b]thiophene-2-carboxamide]: the negative logarithm of the IC50 (pIC50) is 7.70.
`COCc1ccc(C(C)=O)c2sc(C(=O)Nc3ccc4c(C)cccc4n3)c(C)c12` [Example 108, 7-Acetyl-4-(methoxymethyl)-3-methyl-N-(5-methylquinolin-2-yl)benzo[b]thiophene-2-carboxamide] had a negative logarithm of the IC50 (pIC50) of 8.80.
The compound `CCc1c(C(=O)Nc2cc(C(C)(C)O)c3ccccc3n2)sc2c(C(C)=O)ccc(C(C)=O)c12` [Example 7, 4,7-Diacetyl-3-ethyl-N-(4-(2-hydroxypropan-2-yl)quinolin-2-yl)benzo[b]thiophene-2-carboxamide] showed a pIC50 of 8.30.
For the compound `CCOCc1ccc(C(C)=O)c2sc(C(=O)Nc3cc(C(C)(C)O)c4ccccc4n3)c(C)c12` [Example 29, 7-Acetyl-4-(ethoxymethyl)-N-(4-(2-hydroxypropan-2-yl)quinolin-2-yl)-3-methylbenzo[b]thiophene-2-carboxamide], the pIC50 was 8.52.
In turn, `CC(=O)c1ccc(C(C)=O)c2c(C)c(C(=O)Nc3cc(CN(C)C(C)=O)c4ccccc4n3)sc12` [Example 15, 4,7-Diacetyl-3-methyl-N-(4-((N-methylacetamido)methyl)quinolin-2-yl)benzo[b]thiophene-2-carboxamide] had a negative logarithm of the IC50 (pIC50) of 8.64.
The value for `COCc1ccc(C(C)=O)c2sc(C(=O)Nc3ccc4c(COC(F)F)cccc4n3)c(C)c12` [Example 73, 7-Acetyl-N-(5-((difluoromethoxy)methyl)quinolin-2-yl)-4-(methoxymethyl)-3-methylbenzo[b]thiophene-2-carboxamide hydrochloride] was 8.70; that for `COCc1ccc(C(C)=O)c2sc(C(=O)Nc3ccc4c(C(=O)N5CCC5)cccc4n3)c(C)c12` [Example 98, 7-Acetyl-N-(5-((azetidin-1-yl)carbonyl)quinolin-2-yl)-4-(methoxymethyl)-3-methylbenzo[b]thiophene-2-carboxamide] was 9.68; that for `Cc1c(C(=O)Nc2cc(C(C)(C)O)c3ccccc3n2)sc2c(C(=O)CC(C)C)cccc12` [Example 23, N-(4-(2-Hydroxypropan-2-yl)quinolin-2-yl)-3-methyl-7-(3-methylbutanoyl)benzo[b]thiophene-2-carboxamide] was 8.00.
Consider `COCc1ccc(C(C)=O)c2sc(C(=O)Nc3cc(CN(C)CCO)c4ccccc4n3)c(C)c12` [Example 34, 7-Acetyl-N-(4-(((2-hydroxyethyl)(methyl)amino)methyl)quinolin-2-yl)-4-(methoxymethyl)-3-methylbenzo[b]thiophene-2-carboxamide dihydrochloride], for which the pIC50 was 9.03.
The value for `CC(=O)c1ccc(COC(C)C)c2c(C)c(C(=O)Nc3cc(C(C)(C)O)c4ccccc4n3)sc12` [Example 31, 7-Acetyl-N-(4-(2-hydroxypropan-2-yl)quinolin-2-yl)-4-(isopropoxymethyl)-3-methylbenzo[b]thiophene-2-carboxamide] was 7.80; that for `CCC(CC)C(=O)c1cccc2c(C)c(C(=O)Nc3cc(C(C)(C)O)c4ccccc4n3)sc12` [Example 24, 7-(2-Ethylbutanoyl)-N-(4-(2-hydroxypropan-2-yl)quinolin-2-yl)-3-methylbenzo[b]thiophene-2-carboxamide] was 7.60.
The value for `COCc1ccc(C(C)=O)c2sc(C(=O)Nc3cc(CN4CCC(F)(F)C4)c4ccccc4n3)c(C)c12` [Example 48, 7-Acetyl-N-(4-((3,3-difluoropyrrolidin-1-yl)methyl)quinolin-2-yl)-4-(methoxymethyl)-3-methylbenzo[b]thiophene-2-carboxamide] was 9.07.
